Two compounds from paper PMC8213057, “Targeting ALK2: An Open Science Approach to Developing Therapeutics for the Treatment of Diffuse Intrinsic Pontine Glioma” (Journal of Medicinal Chemistry, 2020) can be followed below.

The target in one assay is CAMK2d (Homo sapiens, UniProt Q13557). The note with it: 1 μM; Run 1, Run 2.
The target in the next assay is CLK4 (Homo sapiens, UniProt Q9HAZ1). The note with it: 1 μM; Run 1, Run 2.
Another assay addresses EPHA7 (Homo sapiens, UniProt Q15375). The note with it: 1 μM; Run 1, Run 2.
The target in the next assay is T1, Aurora A (Homo sapiens, UniProt O14965).
T1 sequence (O14965 1-403): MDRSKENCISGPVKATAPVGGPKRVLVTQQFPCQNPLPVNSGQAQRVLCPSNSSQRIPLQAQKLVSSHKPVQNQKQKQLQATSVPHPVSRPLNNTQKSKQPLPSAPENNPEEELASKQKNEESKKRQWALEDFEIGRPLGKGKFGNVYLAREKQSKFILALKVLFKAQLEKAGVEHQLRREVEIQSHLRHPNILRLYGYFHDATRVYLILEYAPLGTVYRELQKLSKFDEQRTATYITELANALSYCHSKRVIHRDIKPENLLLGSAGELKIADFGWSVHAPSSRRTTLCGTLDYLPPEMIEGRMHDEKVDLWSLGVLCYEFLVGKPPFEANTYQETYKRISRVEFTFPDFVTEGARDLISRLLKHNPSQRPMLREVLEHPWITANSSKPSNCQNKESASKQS
Briefly: biochemical. The note with it: read-out: % enzyme activity, 1 μM; Run 1, Run 2.

For the next assay, the target named is T2, MYO3b (Homo sapiens, UniProt Q8WXR4).
T2 sequence (Q8WXR4 1-1341): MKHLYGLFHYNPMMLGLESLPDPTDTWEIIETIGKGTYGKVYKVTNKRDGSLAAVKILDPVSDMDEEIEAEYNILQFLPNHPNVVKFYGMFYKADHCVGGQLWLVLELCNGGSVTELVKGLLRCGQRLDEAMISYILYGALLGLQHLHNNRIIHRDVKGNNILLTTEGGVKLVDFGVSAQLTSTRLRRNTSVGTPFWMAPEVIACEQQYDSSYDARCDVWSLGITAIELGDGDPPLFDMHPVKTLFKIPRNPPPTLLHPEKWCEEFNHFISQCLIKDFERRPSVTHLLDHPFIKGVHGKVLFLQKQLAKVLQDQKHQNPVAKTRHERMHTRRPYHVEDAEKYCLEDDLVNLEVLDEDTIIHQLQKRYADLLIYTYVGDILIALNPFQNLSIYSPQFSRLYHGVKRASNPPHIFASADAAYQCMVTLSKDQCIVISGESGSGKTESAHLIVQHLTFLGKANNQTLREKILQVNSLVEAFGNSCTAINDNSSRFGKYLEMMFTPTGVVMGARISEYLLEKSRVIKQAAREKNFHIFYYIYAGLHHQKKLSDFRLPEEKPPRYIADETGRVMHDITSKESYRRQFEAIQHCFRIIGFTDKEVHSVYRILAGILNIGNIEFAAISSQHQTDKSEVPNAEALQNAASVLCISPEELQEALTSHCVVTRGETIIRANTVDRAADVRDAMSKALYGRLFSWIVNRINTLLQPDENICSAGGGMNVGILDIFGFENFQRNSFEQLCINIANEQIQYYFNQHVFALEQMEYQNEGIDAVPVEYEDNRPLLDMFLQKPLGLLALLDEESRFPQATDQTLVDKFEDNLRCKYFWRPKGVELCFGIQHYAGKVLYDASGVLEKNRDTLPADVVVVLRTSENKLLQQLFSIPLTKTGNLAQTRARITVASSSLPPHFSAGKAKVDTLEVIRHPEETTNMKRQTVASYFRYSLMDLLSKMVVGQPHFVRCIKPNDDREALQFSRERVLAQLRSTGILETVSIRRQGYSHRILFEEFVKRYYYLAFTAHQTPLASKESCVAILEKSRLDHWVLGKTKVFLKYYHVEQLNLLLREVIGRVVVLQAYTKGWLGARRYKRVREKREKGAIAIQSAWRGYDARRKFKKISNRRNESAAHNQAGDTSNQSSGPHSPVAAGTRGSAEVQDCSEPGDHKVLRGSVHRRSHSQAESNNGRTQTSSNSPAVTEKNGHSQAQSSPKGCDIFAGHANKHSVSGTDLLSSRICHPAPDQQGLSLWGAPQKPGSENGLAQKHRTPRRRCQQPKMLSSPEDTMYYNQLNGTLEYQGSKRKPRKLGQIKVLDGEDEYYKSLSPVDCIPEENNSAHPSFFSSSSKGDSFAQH
Briefly: biochemical. The settings on record: read-out: % enzyme activity, 1 μM; Run 1, Run 2.

Sequence of CAMK2d (Q13557 whole entry): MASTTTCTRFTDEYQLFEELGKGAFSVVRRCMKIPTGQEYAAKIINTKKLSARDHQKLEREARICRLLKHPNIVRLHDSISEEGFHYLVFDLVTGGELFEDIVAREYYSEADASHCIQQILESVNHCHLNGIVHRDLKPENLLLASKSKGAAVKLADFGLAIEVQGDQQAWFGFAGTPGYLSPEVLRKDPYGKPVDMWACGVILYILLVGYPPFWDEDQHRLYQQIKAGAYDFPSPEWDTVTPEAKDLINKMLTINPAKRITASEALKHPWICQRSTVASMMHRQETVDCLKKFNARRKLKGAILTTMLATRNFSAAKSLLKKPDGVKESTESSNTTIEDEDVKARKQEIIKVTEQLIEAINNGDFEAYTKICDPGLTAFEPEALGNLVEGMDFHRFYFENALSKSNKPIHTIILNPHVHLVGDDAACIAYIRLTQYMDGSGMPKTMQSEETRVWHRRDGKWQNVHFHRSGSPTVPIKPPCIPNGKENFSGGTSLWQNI
Sequence of CLK4 (Q9HAZ1 whole entry): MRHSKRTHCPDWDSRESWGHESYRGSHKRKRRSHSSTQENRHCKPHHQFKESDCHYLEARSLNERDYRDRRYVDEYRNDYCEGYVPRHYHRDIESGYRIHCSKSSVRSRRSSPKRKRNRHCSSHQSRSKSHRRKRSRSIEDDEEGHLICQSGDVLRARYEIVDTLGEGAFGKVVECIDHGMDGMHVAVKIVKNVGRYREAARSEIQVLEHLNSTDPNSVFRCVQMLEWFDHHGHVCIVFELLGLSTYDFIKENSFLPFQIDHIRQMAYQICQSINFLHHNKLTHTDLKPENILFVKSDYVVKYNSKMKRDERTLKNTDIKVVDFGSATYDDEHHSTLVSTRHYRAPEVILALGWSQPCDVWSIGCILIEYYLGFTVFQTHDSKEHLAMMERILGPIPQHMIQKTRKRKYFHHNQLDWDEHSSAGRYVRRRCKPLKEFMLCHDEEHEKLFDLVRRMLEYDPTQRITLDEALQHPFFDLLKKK
Sequence of EPHA7 (Q15375 28-998): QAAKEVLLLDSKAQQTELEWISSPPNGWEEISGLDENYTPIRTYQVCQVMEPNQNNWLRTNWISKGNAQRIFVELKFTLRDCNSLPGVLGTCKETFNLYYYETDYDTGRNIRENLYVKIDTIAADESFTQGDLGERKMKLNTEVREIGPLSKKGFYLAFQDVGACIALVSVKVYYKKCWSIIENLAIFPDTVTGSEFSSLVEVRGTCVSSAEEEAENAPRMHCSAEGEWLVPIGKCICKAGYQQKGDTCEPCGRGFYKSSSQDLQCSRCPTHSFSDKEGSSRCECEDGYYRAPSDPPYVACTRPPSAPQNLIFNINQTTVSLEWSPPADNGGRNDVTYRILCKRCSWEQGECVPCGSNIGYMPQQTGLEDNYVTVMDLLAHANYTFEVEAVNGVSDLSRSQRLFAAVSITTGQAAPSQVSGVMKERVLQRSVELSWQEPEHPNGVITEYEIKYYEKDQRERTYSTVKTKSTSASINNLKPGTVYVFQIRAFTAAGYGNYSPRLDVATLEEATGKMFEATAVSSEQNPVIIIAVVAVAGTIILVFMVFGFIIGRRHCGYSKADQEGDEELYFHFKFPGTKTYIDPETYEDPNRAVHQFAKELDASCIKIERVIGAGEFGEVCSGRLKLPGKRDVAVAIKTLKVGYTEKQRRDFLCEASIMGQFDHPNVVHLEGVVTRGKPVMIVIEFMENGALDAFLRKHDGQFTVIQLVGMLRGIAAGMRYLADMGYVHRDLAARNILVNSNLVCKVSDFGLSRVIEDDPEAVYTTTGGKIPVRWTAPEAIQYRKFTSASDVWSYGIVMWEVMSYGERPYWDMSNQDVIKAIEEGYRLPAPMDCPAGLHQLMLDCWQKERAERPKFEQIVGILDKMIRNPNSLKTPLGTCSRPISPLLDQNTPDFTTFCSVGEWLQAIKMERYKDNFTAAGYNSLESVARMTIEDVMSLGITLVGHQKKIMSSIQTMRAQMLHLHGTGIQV

For the compound `COc1cc(-c2cncc(-c3ccc(N4CCN(C)CC4)cc3)c2C)cc(F)c1C(N)=O` [Compound 26a, 2-Fluoro-6-methoxy-4-(4-methyl-5-(4-(4-methylpiperazin-1-yl)phenyl)pyridin-3-yl)benzamide], the CYP inhibition on CYP3A4-Testosterone is > 50 µM. Also, the figures for the “% enzyme activity” value on CAMK2d, on CLK4 and at EPHA7 were 94.73%, 85.58% and 98.85%, respectively. The figures for the remaining activity at 1 µM on Aurora A and on MYO3b were 101% and 81.6%, respectively.

On to `COc1cc(-c2cncc(-c3ccc(N4C[C@@H](C)N(C)[C@@H](C)C4)cc3)c2C)cc(F)c1C(N)=O` [Compound 26c, 2-Fluoro-6-methoxy-4-(4-methyl-5-(4-((3R,5S)-3,4,5-trimethylpiperazin-1-yl)phenyl)pyridin-3-yl)benzamide], for which, on CYP3A4-Testosterone, the CYP inhibition is > 50 µM. The figures for the “% enzyme activity” value on CAMK2d, on CLK4 and at EPHA7 were 95.15%, 91.14% and 98.36%, respectively. The remaining activity at 1 µM on Aurora A turned out to be 102%; on MYO3b, 86.5%.
